From patent US10202406B2, “Boron cluster compounds and uses thereof” (priority 2011, dated 2019)
Entries after “also recorded” stand apart in the source; their conditions may differ.

What was measured:
[1] = molecular target: T1, Nav1.2 voltage gated sodium channels (Homo sapiens, UniProt Q99250); assay: Two electrode voltage clamp electrophysiology of voltage gated sodium channels expressed in Xenopus oocytes; type: cell-based; conditions: 0.3 mM in superfusate for two minutes then washed out; holding potential -50 mV; Nav1.2 in Xenopus oocytes
T1 construct: expressed in transfected cells; host or cells: Xenopus oocytes
T1 sequence (Q99250 whole entry): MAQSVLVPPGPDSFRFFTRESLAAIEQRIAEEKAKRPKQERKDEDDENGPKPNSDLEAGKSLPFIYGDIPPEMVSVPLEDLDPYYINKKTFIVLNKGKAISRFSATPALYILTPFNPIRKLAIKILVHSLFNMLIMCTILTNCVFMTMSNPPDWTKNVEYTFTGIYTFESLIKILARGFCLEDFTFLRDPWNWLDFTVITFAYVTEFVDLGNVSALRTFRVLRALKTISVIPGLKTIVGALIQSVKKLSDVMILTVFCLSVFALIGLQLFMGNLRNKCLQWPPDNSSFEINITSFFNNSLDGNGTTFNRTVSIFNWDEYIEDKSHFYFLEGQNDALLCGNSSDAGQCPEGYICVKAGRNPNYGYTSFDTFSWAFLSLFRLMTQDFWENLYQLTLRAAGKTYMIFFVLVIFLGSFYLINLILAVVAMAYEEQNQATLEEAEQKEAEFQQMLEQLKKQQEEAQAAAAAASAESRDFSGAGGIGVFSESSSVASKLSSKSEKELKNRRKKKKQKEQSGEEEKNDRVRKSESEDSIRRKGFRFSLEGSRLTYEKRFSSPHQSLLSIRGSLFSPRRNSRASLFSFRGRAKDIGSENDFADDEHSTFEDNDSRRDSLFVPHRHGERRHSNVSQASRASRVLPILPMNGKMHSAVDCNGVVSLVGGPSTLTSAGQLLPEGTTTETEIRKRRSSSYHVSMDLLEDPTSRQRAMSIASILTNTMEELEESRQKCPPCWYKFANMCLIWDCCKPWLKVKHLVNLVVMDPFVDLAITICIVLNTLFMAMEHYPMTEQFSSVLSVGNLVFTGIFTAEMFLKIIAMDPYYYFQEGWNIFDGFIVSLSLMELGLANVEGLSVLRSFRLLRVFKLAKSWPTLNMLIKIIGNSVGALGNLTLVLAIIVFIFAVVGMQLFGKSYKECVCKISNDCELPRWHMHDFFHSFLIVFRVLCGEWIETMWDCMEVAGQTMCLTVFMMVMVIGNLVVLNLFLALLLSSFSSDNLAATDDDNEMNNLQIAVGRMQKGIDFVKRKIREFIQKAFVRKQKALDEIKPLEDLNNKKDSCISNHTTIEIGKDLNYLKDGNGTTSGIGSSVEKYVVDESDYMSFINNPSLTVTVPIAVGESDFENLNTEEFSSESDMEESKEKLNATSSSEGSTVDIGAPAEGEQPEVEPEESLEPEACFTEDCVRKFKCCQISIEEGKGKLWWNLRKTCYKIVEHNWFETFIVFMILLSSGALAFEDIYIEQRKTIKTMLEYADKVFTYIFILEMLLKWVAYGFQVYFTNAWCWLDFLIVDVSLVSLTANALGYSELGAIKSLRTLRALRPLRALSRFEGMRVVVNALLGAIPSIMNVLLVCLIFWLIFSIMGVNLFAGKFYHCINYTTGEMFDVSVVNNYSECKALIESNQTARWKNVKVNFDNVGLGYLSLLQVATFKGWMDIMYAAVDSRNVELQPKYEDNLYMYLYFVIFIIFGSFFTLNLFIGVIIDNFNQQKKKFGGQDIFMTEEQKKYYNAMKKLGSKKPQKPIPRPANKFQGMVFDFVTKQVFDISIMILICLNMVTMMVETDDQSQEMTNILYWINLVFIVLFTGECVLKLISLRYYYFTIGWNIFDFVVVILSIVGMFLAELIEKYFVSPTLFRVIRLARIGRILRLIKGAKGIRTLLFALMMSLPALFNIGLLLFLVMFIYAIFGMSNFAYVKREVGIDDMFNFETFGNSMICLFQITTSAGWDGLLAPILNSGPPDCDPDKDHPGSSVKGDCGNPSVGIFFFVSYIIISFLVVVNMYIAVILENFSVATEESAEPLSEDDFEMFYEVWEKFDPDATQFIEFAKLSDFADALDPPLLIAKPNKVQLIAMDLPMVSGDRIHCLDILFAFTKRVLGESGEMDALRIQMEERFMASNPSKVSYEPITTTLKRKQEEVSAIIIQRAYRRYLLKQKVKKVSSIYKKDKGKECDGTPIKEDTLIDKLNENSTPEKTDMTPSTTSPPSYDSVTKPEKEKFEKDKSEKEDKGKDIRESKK
Description: Nav1.2 voltage gated sodium channels were expressed in Xenopus oocytes and standard two electrode voltage clamp techniques were used to measure ionic currents through the channels after depolarizations from a holding potential of −50 mV. The test drugs, all at a concentration of 0.3 mM, were added to the superfusate for two minutes as indicated by the black bars and then washed out. […] Data are expressed as means±standard error of the mean and n equals the number of cells used in FIG. 4 (a)-(d).

mice [2] = assay: Hot plate paw withdrawal latency after injection into a hind limb near the sciatic nerve; type: in vivo; conditions: 50 microliters of 10 mM injected into hind limb near sciatic nerve, 55° C. hot plate, about 30 min
Description: The test drugs, all at a volume of 50 microliters and a concentration of 10 mM, were injected into a hind limb near the sciatic nerve. The time it takes for the animals to withdraw the foot of the injected limb from touching a 55° C. hot plate is measured in seconds. This time is termed the paw withdrawal latency and is measured over about a 30 min time period. Data are expressed as means±standard error of the mean and n equals the number of animals used in FIG. 5(a)-(d).

mice [3] = assay: Motor deficit testing, inverted screen test after injection; conditions: sensory block (hot plate) versus motor block (inverted screen test)
Description: Motor function was tested by observing the ability of the mice to walk hanging upside down from a screen, termed the inverted screen test.

| Molecule | block of voltage gated sodium channels (ionic currents) [1] | analgesia / sensory block (paw withdrawal latency) (mice [2]) | selectivity of block of sensory nerves over motor nerves (mice [3]) |
| --- | --- | --- | --- |
| 2-Diethylaminoacetamido-1,12-closo-carborane [p-carborane lidocaine] | block voltage gated sodium channels in a reversible manner | provide analgesia | selectively blocked sensory nerves over motor nerves; also recorded: selective block of sensory nerves over motor nerves |
| 3-Diethylaminoacetamido-1,2-closo-carborane [o-carborane lidocaine] | block voltage gated sodium channels in a reversible manner | provide analgesia | selectively blocked sensory nerves over motor nerves; also recorded: selective block of sensory nerves over motor nerves |
| 9-Diethylaminoacetamido-1,7-closo-carborane [m-carborane lidocaine] | block voltage gated sodium channels in a reversible manner | did not provide analgesia; also recorded: neither motor nor sensory block | – |
| CCN(CC)CC(=O)Nc1c(C)cccc1C [lidocaine, reference compound] | block voltage gated sodium channels in a reversible manner | provide analgesia | – |
